Results: patent publication US20110172098A1, “Imidazole and Triazole Compounds, Their Use and Agents Containing the Same” (priority 2008, published 2011)

Assays:
[1] = test system: Botrytis cinerea; test: Activity against the gray mold pathogen Botrytis cinerea in the microtiter test (M1 / C1); type: cell-based; conditions: comparison with the prior art, day 7
Method: (§1) Leaves of soybean seedlings grown in pots were inoculated with a spore suspension of soybean rust (Phakopsora pachyrhizi). The pots were then placed in a chamber of high atmospheric humidity (90 to 95%) and 23 to 27° C. for 24 hours. During this time, the spores germinated and the germ tubes penetrated into the leaf tissue. The infected plants were then cultivated further in a greenhouse at temperatures between 23 and 27° C. and 60 to 80% relative atmospheric humidity. After two days, the plants were sprayed to runoff point with the active compound solution described above at the active compound concentration indicated below. After the spray coating had dried on, the test plants were cultivated in a greenhouse at temperatures between 23 and 27° C. and 60 to 80% relative atmospheric humidity for a further 10 days. The extent of the rust fungus development on the leaves was then determined visually in % of infection. […] B) Micro test The active compounds were formulated separately as a stock solution having a concentration of 10 000 ppm in DMSO.
(§2) The stock solution was pipetted into a microtiter plate (MTP) and diluted with water to the stated active compound concentration. […] Using an absorption photometer, the MTPs were measured at 405 nm on day 7 after the inoculation. The measured parameters were compared to the growth of the active compound-free control variant and the fungus- and active compound-free blank value to determine the relative growth in % of the pathogens in the individual active compounds.
(§3) The active compounds were formulated separately as a stock solution having a concentration of 10 000 ppm in DMSO. […] Using an absorption photometer, the MTPs were measured at 405 nm on day 7 after the inoculation. The measured parameters were compared to the growth of the active compound-free control variant and the fungus- and active compound-free blank value to determine the relative growth in % of the pathogens in the individual active compounds. […] […]

[2] = test system: Septoria tritici; test: Activity against the Septoria leaf blotch pathogen Septoria tritici in the microtiter test (M2 / C2); type: cell-based; conditions: comparison with the prior art, day 7
Method: as §1
as §2, with “variant (100%)” for “variant”, “compounds. […]” for “compounds.”
as §3

Row | SMILES | Growth (%) at 31 ppm of C1 [1] | Growth (%) at 31 ppm of C2 [2]
1 | Cc1ccc(CCC(C(O)C(C)(C)C)n2cncn2)cc1 (stereo not drawn) | 4% | 4%
2 | Cc1ccc(C(C)CC(C(O)C(C)(C)C)n2cncn2)cc1 (stereo not drawn) | 0% | 3%
3 | CC(C)(C)C(O)C(CCc1ccccc1)n1cncn1 (stereo not drawn) [reference compound] | 81% | 100%
